This is an account of results in ChEMBL document CHEMBL1150976, “The selectivity of protein kinase inhibitors: a further update” (Biochem J, 2007).

The target in test [1] is T1, Eukaryotic elongation factor 2 kinase (Homo sapiens) (UniProt O00418).
T1 sequence (whole entry): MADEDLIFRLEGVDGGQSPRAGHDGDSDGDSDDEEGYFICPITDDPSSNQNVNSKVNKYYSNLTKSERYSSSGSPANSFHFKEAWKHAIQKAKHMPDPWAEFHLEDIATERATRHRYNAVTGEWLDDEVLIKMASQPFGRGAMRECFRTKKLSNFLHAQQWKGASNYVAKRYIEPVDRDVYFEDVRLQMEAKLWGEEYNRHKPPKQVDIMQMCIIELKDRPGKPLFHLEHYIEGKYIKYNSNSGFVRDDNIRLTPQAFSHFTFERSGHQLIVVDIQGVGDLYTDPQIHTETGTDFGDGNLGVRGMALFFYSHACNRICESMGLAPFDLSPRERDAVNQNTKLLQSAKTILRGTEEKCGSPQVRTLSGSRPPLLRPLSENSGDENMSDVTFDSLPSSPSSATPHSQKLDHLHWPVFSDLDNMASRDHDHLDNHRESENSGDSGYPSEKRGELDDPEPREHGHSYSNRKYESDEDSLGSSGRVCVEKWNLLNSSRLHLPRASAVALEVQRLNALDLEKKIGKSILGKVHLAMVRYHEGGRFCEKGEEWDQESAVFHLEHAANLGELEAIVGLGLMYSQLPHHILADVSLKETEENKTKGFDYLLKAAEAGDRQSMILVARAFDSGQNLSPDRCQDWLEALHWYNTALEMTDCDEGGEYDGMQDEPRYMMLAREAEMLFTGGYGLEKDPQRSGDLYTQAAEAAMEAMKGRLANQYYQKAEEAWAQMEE
Nature of the test: Percentage EF2K activity remaining in the presence of 3uM inhibitor.

The target of test [2] is cAMP-dependent protein kinase catalytic subunit alpha (Homo sapiens, UniProt P17612). Nature of the test: Percentage PKA activity remaining in the presence of 3uM inhibitor.
For test [3], the target named is Calcium/calmodulin-dependent protein kinase kinase 1 (Homo sapiens) (UniProt Q8N5S9). As to the kind of experiment: Percentage CaMKKalpha activity remaining in the presence of 3uM inhibitor.
Calcium/calmodulin-dependent protein kinase kinase 1 (Homo sapiens), sequence (Q8N5S9 whole entry, looked up): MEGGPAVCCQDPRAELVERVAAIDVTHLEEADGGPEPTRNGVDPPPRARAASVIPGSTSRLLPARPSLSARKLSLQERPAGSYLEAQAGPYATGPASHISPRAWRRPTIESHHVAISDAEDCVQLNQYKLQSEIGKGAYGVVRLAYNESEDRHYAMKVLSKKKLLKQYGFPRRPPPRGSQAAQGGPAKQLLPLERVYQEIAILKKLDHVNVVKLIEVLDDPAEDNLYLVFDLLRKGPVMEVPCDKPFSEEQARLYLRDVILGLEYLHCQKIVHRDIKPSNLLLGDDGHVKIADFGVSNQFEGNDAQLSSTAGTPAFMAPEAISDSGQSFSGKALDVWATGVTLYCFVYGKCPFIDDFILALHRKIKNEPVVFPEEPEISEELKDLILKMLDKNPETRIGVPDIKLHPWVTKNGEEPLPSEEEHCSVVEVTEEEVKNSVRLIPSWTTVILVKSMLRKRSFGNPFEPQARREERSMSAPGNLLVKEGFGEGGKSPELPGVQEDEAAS
Test [4] concerns the target Serine/threonine-protein kinase N2 (Homo sapiens) (UniProt Q16513). As to the kind of experiment: Percentage PRK2 activity remaining in the presence of 3uM inhibitor.
The target in test [5] is Mitogen-activated protein kinase 8 (Homo sapiens, UniProt P45983). Nature of the test: Percentage JNK1 activity remaining in the presence of 2uM inhibitor.
Mitogen-activated protein kinase 8, sequence (P45983 whole entry): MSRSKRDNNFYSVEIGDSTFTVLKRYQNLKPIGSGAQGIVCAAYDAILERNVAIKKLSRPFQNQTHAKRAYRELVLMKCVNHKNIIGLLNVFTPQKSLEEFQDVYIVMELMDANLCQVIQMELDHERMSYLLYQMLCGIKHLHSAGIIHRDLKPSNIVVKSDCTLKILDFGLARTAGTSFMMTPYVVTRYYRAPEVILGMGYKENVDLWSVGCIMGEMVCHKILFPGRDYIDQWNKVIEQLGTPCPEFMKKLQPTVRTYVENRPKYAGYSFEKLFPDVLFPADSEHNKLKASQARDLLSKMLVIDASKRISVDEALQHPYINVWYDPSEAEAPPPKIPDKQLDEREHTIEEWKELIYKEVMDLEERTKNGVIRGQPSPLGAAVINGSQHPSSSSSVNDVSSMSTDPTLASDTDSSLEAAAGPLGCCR
The target of test [6] is T2, Protein kinase C zeta type (Homo sapiens) (UniProt Q05513).
T2 sequence (whole entry): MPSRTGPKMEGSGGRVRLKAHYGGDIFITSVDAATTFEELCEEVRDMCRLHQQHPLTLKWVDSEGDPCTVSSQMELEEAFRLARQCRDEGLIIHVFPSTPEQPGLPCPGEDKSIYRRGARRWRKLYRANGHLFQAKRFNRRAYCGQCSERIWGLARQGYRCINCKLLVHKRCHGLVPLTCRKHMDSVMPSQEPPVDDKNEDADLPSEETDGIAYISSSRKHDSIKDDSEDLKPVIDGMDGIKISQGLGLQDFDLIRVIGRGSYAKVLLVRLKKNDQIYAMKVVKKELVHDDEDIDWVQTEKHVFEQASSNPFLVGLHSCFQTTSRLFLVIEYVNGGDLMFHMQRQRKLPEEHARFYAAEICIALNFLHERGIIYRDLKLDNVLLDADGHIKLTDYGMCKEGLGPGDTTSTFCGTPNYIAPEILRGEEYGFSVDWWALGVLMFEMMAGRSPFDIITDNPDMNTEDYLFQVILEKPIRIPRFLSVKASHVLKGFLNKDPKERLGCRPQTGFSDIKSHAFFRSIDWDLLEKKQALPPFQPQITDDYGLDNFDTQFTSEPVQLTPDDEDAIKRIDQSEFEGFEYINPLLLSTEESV
Nature of the test: Percentage PKCzeta activity remaining in the presence of 2uM inhibitor.

The target in test [7] is T3, Dual specificity tyrosine-phosphorylation-regulated kinase 3 (Homo sapiens) (UniProt O43781).
T3 sequence (whole entry): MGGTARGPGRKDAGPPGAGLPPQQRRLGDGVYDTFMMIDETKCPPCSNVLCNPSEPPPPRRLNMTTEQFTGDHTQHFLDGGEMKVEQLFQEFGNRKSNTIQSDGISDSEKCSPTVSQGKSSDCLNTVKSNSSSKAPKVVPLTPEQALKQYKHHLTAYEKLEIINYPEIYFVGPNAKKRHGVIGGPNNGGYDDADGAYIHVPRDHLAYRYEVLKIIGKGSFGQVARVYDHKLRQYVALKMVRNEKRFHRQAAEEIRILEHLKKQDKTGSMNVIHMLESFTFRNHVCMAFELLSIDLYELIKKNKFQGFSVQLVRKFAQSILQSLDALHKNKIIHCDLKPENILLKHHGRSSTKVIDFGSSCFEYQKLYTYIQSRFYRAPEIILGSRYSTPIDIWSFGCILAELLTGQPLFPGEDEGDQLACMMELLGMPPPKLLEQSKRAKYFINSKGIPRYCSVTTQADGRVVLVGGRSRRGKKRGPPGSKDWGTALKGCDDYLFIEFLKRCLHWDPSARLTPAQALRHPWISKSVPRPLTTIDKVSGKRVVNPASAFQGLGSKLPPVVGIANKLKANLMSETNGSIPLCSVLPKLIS
As to the kind of experiment: Percentage DYRK3 activity remaining in the presence of 2uM inhibitor.

For test [8], the target named is Homeodomain-interacting protein kinase 3 (Homo sapiens) (UniProt Q9H422). As to the kind of experiment: Percentage HIPK3 activity remaining in the presence of 2uM inhibitor. To be noted: filed as antagonist.
Homeodomain-interacting protein kinase 3 (Homo sapiens), sequence (Q9H422 whole entry, looked up): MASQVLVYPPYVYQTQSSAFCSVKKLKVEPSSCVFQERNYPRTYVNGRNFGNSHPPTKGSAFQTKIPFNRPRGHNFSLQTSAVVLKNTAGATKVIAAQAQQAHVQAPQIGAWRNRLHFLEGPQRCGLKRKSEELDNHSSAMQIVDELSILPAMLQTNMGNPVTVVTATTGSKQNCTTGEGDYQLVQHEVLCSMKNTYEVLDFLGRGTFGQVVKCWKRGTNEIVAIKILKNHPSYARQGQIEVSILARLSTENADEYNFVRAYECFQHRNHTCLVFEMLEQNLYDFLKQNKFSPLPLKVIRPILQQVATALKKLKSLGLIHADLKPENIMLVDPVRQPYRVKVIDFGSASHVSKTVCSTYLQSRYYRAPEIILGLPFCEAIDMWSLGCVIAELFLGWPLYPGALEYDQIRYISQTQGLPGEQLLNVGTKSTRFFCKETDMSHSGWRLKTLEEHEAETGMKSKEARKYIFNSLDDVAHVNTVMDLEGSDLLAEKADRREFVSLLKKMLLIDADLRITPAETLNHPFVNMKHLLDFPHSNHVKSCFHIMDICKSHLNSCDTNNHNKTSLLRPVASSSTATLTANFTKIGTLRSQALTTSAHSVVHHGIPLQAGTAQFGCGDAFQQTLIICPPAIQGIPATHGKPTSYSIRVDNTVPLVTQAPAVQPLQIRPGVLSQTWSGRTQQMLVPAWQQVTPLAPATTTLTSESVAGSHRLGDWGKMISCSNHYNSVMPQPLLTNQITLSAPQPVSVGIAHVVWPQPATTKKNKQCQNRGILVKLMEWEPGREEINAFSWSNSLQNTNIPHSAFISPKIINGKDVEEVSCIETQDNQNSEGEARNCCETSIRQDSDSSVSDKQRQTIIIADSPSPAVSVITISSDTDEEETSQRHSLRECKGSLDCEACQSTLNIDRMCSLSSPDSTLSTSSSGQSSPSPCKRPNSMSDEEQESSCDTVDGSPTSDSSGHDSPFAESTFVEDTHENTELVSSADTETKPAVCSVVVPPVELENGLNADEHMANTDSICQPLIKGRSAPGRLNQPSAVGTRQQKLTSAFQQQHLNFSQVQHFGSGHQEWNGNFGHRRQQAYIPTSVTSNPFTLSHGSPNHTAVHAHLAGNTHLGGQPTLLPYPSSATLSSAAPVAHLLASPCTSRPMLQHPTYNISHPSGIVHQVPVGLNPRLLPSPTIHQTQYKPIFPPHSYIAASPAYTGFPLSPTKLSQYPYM
The target in test [9] is Serine/threonine-protein kinase pim-2 (Homo sapiens, UniProt Q9P1W9). Nature of the test: Percentage PIM2 activity remaining in the presence of 2uM inhibitor.
Serine/threonine-protein kinase pim-2, sequence (Q9P1W9 whole entry, looked up): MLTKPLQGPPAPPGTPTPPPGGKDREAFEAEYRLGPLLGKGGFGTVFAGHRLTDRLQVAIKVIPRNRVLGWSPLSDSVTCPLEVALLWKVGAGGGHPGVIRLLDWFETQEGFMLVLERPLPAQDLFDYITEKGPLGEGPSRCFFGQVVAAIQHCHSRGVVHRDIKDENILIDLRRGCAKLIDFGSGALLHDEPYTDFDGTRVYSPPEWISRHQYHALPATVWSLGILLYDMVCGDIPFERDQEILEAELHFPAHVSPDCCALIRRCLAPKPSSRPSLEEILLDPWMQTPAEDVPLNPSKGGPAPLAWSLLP
Test [10] deals with RAC-alpha serine/threonine-protein kinase (Homo sapiens) (UniProt P31749). As to the kind of experiment: Percentage PKBalpha activity remaining in the presence of 2uM inhibitor.
RAC-alpha serine/threonine-protein kinase (Homo sapiens), sequence (P31749 whole entry): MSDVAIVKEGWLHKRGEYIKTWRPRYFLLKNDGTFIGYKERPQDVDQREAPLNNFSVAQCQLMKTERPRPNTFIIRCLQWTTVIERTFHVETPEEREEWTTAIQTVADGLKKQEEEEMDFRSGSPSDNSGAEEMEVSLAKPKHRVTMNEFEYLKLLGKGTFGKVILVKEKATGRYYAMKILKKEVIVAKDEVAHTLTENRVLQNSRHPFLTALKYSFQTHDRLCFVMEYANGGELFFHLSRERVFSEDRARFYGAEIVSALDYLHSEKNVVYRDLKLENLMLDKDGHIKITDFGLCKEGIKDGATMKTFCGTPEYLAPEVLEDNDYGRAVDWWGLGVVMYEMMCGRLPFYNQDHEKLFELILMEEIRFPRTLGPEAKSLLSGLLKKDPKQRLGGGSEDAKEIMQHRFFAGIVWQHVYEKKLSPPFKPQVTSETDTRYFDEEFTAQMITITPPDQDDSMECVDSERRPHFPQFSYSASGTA
The target of test [11] is Mitogen-activated protein kinase 9 (Homo sapiens, UniProt P45984). Nature of the test: Percentage JNK2 activity remaining in the presence of 2uM inhibitor.
Mitogen-activated protein kinase 9, sequence (P45984 whole entry, looked up): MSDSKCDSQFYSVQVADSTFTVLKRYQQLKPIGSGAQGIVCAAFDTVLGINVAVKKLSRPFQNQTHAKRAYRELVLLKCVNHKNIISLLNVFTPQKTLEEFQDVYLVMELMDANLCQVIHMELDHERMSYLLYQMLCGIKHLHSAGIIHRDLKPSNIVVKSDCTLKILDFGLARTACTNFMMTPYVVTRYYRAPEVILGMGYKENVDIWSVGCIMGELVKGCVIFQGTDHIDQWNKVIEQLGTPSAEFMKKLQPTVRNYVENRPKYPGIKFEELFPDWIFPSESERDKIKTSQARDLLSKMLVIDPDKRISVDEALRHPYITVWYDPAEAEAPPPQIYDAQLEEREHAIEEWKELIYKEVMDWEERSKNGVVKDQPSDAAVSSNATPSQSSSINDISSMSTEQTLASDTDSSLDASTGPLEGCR
The target of test [12] is Serine/threonine-protein kinase N2 (Homo sapiens) (UniProt Q16513). Nature of the test: Percentage PRK2 activity remaining in the presence of 2uM inhibitor.
Serine/threonine-protein kinase N2 (Homo sapiens), sequence (Q16513 whole entry, looked up): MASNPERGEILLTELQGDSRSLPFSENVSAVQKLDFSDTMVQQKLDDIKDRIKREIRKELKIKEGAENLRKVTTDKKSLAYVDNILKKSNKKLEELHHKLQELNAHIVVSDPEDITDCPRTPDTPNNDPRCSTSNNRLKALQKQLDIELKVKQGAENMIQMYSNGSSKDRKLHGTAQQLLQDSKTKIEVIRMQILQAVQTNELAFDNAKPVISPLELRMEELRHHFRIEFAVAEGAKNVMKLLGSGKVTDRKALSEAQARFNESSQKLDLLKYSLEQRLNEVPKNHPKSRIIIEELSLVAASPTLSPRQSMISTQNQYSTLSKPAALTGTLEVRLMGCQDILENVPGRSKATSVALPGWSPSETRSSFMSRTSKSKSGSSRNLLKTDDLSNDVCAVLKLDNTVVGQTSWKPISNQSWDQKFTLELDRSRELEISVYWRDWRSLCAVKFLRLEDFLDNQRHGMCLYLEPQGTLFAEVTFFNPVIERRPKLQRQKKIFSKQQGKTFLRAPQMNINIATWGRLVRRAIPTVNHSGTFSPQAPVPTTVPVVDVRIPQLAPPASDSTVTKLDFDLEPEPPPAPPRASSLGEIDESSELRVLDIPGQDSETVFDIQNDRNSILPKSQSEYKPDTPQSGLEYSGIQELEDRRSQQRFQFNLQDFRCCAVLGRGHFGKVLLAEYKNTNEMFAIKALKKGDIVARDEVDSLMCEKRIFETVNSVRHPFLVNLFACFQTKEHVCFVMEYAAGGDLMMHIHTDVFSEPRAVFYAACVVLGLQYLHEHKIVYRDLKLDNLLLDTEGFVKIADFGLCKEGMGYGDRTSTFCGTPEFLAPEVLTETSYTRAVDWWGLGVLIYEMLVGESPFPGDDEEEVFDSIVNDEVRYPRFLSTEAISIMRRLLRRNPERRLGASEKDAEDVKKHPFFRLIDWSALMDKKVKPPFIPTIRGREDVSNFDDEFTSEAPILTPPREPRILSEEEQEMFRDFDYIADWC

Each structure is given as a SMILES string.

As for `Cc1ccc(-c2c(C(=O)CF)n(CCCO)c3ncnc(N)c23)cc1`, the Activity in test [1] was 97%; in [2], 85%; in test [3], 70%; in test [4], 83%.

`Cn1cc(C2=C(c3ccc(Cl)cc3Cl)C(=O)NC2=O)c2ccccc21`: the Activity is 106% in test [5]; 81% in [6]; 79% in test [7]; 41% in test [8]; 81% in test [9]; 88% in test [10]. For the same molecule, the Activity came to 85% in [11] and 81% in [12].
